pIC50: −log10 of the molar value.
Key:
[1] = target: T1, Replicase polyprotein 1ab (Severe acute respiratory syndrome coronavirus 2, UniProt P0DTD1); assay: Inhibition of N-terminal 6-His-tagged SARS-CoV-2 PLpro BetaCoV/Wuhan/WIV04/2019 (1524 to 1883 residues) extracted from Escherichia coli BL21 (DE3) cells using Dabcyl-KTSAVLQ/SGFRKME as substrate pretreated for 30 mins followed by substrate addition measured for 1 hr by TR-FRET analysis
[2] = target: T1, Replicase polyprotein 1ab; assay: Inhibition of SARS-CoV-2 wild type PLpro extracted from Escherichia coli Rosetta 2(DE3) cells by fluorescence based analysis

Row | Compound | pIC50 [1] | pIC50 [2]
1 | C[C@H](c1cccc2ccccc12)N1CCC(C(=O)NCc2ccc(S(N)(=O)=O)cc2)CC1 | 6.22 | 
2 | C[C@H](c1cccc2ccccc12)N1CCC(C(=O)NCc2cc(F)cc(NC(=O)N3CCN(C)CC3)c2)CC1 |  | 6.00
